Measured values as given in US4152519A, “16-Hydroxy aspidospermidines and a process for their production” (Parcor, priority 1976, dated 1979).

Tests used:
[1] = stability in acidic medium; assay type: physicochemical
[2] = acute toxicity in the rat (LD50, SPEARMAN-KARBER method); conditions: in vivo
Description: (§1) The results of the study of the acute toxicity were as follows, the tests having been carried out on the mouse and rat, whilst the product was administered intravenously, subcutaneously and by oesophageal tube. The doses studied were administered in a volume of 1 ml/100 g of body weight, whilst each dose was administered to 5 males and 5 females; the LD 50 was investigated using the SPEARMAN-KARBER method.

[3] = acute toxicity in the mouse (LD50, SPEARMAN-KARBER method); conditions: in vivo
Description: as §1

[4] = in vivo
Text: 2. the chronic toxicity (rats and dogs),
4. the local and general tolerance,
5. the possible teratogenic effects, […]

[5] = system: "spatial disorientation" syndrome; experiment: effect on a "spatial disorientation" syndrome in the rat (aquatic labyrinth after electric shock); assay type: in vivo, rat (Wistar AF-Han)
Description: This study was carried out using male rats of the Wistar AF-Han EOPS strains weighing about 160 g and about 6 to 7 weeks old.
After being guided through once by the experimenter, the rats are first of all subjected to 4 tests in 2 days in an aquatic labyrinth described by GIURGEA and MOURAVIEFFLESUISSE (J. Pharmacol. PARIS, 1972, 3, 1, 17-30).
On the 3rd day, the rats are subjected to a supramaximal electric shock delivered by a Neurovac controlled by a CRC OC 342 oscillograph; the electric shock has the following characteristics: 100 Hz, 0.5 ms, 1 second, 60 volts.
After passing through the labyrinth 20 minutes after the electric shock, the rats are given their treatment by oesophageal tube. Two tests are carried out 40 and 100 minutes after treatment, i.e. 60 and 120 minutes after the electric shock, and the time taken to pass through the labyrinth by each animal is timed; the number of errors is also noted.
The rats are put on a diet of water for 18 hours after passing through for the 4th time. The compound is administered by intragastric route in a volume of 5 ml/kg.
time taken to leave the aquatic labyrinth;
average number of errors made in an effort to leave the labyrinth;
percentage of "normal" subjects, i.e. rats passing through the labyrinth with only 0-4 errors.

[6] = system: cortical electrogenesis disrupted by the presence of a unilateral cerebral oedema; experiment: effect on cortical electrogenesis disrupted by unilateral cerebral oedema in the unanaesthetised rabbit; assay type: in vivo
Description: 48 hours before use, the animal's cranium is exposed and stainless steel electrodes are screwed on so as to contact the dura mater on the frontal and occipital lobes on both sides of the median and transverse sutures. The electrocorticogram is recorded on a REEGA MINI HUIT TR electroencephalograph mounted transversely and longitudinally, whilst a 4th channel serves to record the electrocardiogram. Moreover, a flap of bone 7 to 10 mm in diameter was removed on one side, and this operation was not found, 48 hours later, to have caused any appreciable disruption of the electrical activity of the cortex.
An oedema was then produced by removing the dura mater and arachnoid; it usually takes the form of a hernia of the cortex. The treatment is then given and the electrocorticographic trace is monitored every hour during and after administration of the test products, then 24 and 48 hours later.
The action of the test products is assessed on the basic electrogenesis, particularly on the presence of slow waves and on the signs of cortical reactivity to two exteroceptive stimuli: a receptive stimulus (electrical tone lasting 2 seconds) and a nociceptive stimulation of the nerve endings in the skin by pinching the dorsal skin using KOCHER forceps.
The compounds are administered by either intravenous or intragastric route.

[7] = system: low-pressure hypoxia; experiment: mortality caused by low-pressure hypoxia in the mouse; assay type: in vivo, mouse (NMRI-Han); design: survival time, average and standard deviation: unit not given here
Description: An artificial altitude was created by placing the mouse in a sealed box and progressively reducing the pressure to 190 mm of mercury (equivalent to about 10,000 meters altitude) using a CEM-type pump, so that the desired altitude is obtained in 1 minute 10 seconds on average. A stopwatch is then started and the exact time when the chest movements cease is noted. Any mouse whose survival time is more than twice the average value noted in the corresponding "solvent control" series is regarded as protected.
The ED50 was calculated from the percentage of "protected" mice using the graphical method indicated by LITCHFIELD and WILCOXON (J. Pharm. Exp. Ther., 1949, 96, 99-113).
The compound was administered by intraperitoneal route 20 minutes before the altitude is artifically created; whatever the dose, the volume injected was always equal to 20 ml/kg.
The effects were also examined after administration by oesophageal tube 60 minutes before the test, whilst the volume administered is always 20 ml/kg.
The entire study was carried out on adult male EOPS mice (4 to 5 weeks old) of the NMRI-Han strain, divided into random test groups after being fed only water for 18 hours.

[8] = 50 mg/kg group, 20 minutes after electric shock (before treatment)
[9] = 50 mg/kg group, before electric shock (before treatment)
[10] = 50 mg/kg intragastric, 60 minutes after electric shock (40 minutes after treatment)
[11] = 50 mg/kg intragastric, 120 minutes after electric shock (100 minutes after treatment)
[12] = 100 mg/kg group, 20 minutes after electric shock (before treatment)
[13] = 100 mg/kg group, before electric shock (before treatment)
[14] = 100 mg/kg intragastric, 60 minutes after electric shock (40 minutes after treatment)
[15] = 100 mg/kg intragastric, 120 minutes after electric shock (100 minutes after treatment)

CCC12CCCN3CCC4(C(=Nc5ccccc54)C(O)(C(=O)OC)C1)C32 (single isomer, unassigned) [the compound]
stability in an acidic medium [1]: unstable in an acidic medium | LD50 at 72 h ([2]; iv): 63.4 mg/kg | LD50 at 72 h ([2]; po): 777 mg/kg | LD50 at 72 h ([2]; sc): 126 mg/kg | LD50 at 72 h ([3]; iv): 86 mg/kg | LD50 at 72 h ([3]; po): 860 mg/kg | LD50 at 72 h ([3]; sc): 176 mg/kg | tolerance [4]: tolerated well both orally and by parenteral or intramuscular route, without causing local or general reactions | average number of errors [5, 8]: 23.4 | average time taken to leave the aquatic labyrinth [5, 8]: 186 s | percentage of "normal" subjects (0-4 errors) [5, 8]: 0 percentage | average number of errors [5, 9]: 3.4 | average time taken to leave the aquatic labyrinth [5, 9]: 39 s | percentage of "normal" subjects (0-4 errors) [5, 9]: 80 percentage | average number of errors [5, 10]: 15.2 | average time taken to leave the aquatic labyrinth [5, 10]: 96 s | percentage of "normal" subjects (0-4 errors) [5, 10]: 28 percentage | average number of errors [5, 11]: 8.9 | average time taken to leave the aquatic labyrinth [5, 11]: 68 s | percentage of "normal" subjects (0-4 errors) [5, 11]: 52 percentage | average number of errors [5, 12]: 22.6 | average time taken to leave the aquatic labyrinth [5, 12]: 168 s | percentage of "normal" subjects (0-4 errors) [5, 12]: 0 percentage | average number of errors [5, 13]: 3.4 | average time taken to leave the aquatic labyrinth [5, 13]: 37 s | percentage of "normal" subjects (0-4 errors) [5, 13]: 77 percentage | average number of errors [5, 14]: 13.9 | average time taken to leave the aquatic labyrinth [5, 14]: 103 s | percentage of "normal" subjects (0-4 errors) [5, 14]: 17 percentage | average number of errors [5, 15]: 8.9 | average time taken to leave the aquatic labyrinth [5, 15]: 80 s | percentage of "normal" subjects (0-4 errors) [5, 15]: 47 percentage | recovery of memory ([5]; oral route, conclusion): accelerates the recovery of memory already instilled | effect on the development of electrogenesis in the cortex disrupted by unilateral cerebral oedema ([6]; conclusion, unanaesthetised rabbit): beneficial effect | increase of the value of the "R" index ([6]; intragastric, 5 mg/kg): ~30% | value of the "R" index ([6]; intragastric, 10 mg/kg, during the 8 hours following ingestion): a clear improvement in the value of the "R" index | activity with regard to oedema symptoms (spontaneous electrogenesis and duration of alert reactions) ([6]; intravenous, 0.5 mg, 1 mg and 2 mg/kg): has a therapeutic acitivity with regard to oedema symptoms | survival time, average and standard deviation ([7]; 2.5 mg/kg i.p., 20 minutes before altitude): 88.4 ± 7.01 | survival time, average and standard deviation ([7]; 5.0 mg/kg i.p., 20 minutes before altitude): 108.5 ± 20.22 | survival time, average and standard deviation ([7]; 10.0 mg/kg i.p., 20 minutes before altitude): 155.7 ± 30.42 | survival time, average and standard deviation ([7]; 15 mg/kg i.p., 20 minutes before altitude): 179.6 ± 32.07 | survival time, average and standard deviation ([7]; 20 mg/kg i.p., 20 minutes before altitude): 275.4 ± 39.77 | survival time, average and standard deviation ([7]; 30 mg/kg i.p., 20 minutes before altitude): 308.5 ± 35.65 | survival time, average and standard deviation ([7]; 50 mg/kg p.o., 60 minutes before test): 122.6 ± 11.75 | survival time, average and standard deviation ([7]; 100 mg/kg p.o., 60 minutes before test): 186.8 ± 25.70 | survival time, average and standard deviation ([7]; 150 mg/kg p.o., 60 minutes before test): 179.7 ± 20.23 | survival time, average and standard deviation ([7]; 200 mg/kg p.o., 60 minutes before test): 287.0 ± 25.58 | survival time, average and standard deviation ([7]; 250 mg/kg p.o., 60 minutes before test): 306.5 ± 29.46 | survival time, average and standard deviation ([7]; 300 mg/kg p.o., 60 minutes before test): 281.6 ± 30.61 | protection from the toxic effects of artificial altitude ([7]; regardless of the route of administration): makes it possible to protect the mouse from the toxic effects of artificial altitude
